Measured values published in patent publication US9440963B2, “Compositions, formulations and methods for treating ocular diseases” (Aerpio Therapeutics Inc., priority 2013, dated 2016).
Values after ≈ are worked out from the molar mass of the structure shown. Where two headings read alike, the source gives them in different places.

Experiments:
[1] = human, in vivo
Experimental: FIG. 9 depicts the mean plasma concentration over time after a single dose of a 5 mg, a 15 mg, a 22.5 mg, or a 30 mg of a test compound on day 14, respectively, in a multiple ascending dose study in patients with diabetic macular edema.
A phase 1B/2A open-label, Multiple-ascending dose cohort study to assess the pharmacokinetics and pharmacodynamics effect of 28-day repeat subcutaneous dose of 4-{(S)-2-[(S)-2-(methoxycarbonylamino)-3-phenylpropanamido]-2-[2-(thiophen-2-yl)thiazol-4-yl]ethyl}phenylsulfamic acid (drug) in subjects with diffuse diabetic macular edema (DME).
The aim of this study was to evaluate tolerability, safety, efficacy and pharmacokinetics and pharmacodynamics in patients with DME involving the center of the fovea with central subfield mean thickness ≧325 μm measured by spectral domain-optical coherence tomography (SD-OCT).
Twenty-four patients were administered ascending doses of test compound twice daily (BID) for 28 days in 4 separate cohorts at 5, 15, 22.5 or 30 mg BID, respectively.
Drug was supplied as a lyophilized powder in a vial for reconstitution. Each vial contained 100 mg drug and 250 mg HPβCD. Vials were reconstituted with sterile 5% dextrose for cohort 1 (5 mg BID) and with sterile diluent containing 5% HPβCD/1% dextrose for cohorts 2, 3, and 4 (15 mg, 22.5 mg and 30 mg BID).
For cohorts 1 (5 mg BID) and 2 (15 mg BID) the volume administered for each dose was 0.5 ml (10 and 30 mg/ml, respectively) and for cohorts 3 and 4 the volume was 0.75 ml (30 and 40 mg/ml, respectively).
Blood samples for pharmacokinetic profiling were taken pre-dose (0), 15 minutes, 1 hour, 2 hours, 3 hours and 4 hours after administration of the first dose on day 14.
Plasma drug concentration was determined with a validated LC/MS-MS method. The pharmacokinetic (PK) parameters were determined using a standard non-compartmental method, and Cmax, AUClast (with last being from time 0 to the last quantifiable point), AUCinf, were analyzed statistically using log-transformed data.

[2] = Chemical and physical stability of aqueous solution formulations (Table XXIX); format: physicochemical; settings: for Concentration of test compound in aqueous solution formulation shown to be chemically and physically stable: chemically stable 1 month at 50 °C, physically stable at 5 °C, ambient, 50 °C
Experimental: TABLE XXIX contains aqueous solution formulations of the test compound above with the denoted solvents that have been prepared and shown to be chemically stable through 1 month at 50° C., and physically stable at 5° C., at ambient temperature, and at 50° C. […] The target pH range for the formulations is pH 7+/−0.5 pH units.

[3] = Room temperature aqueous solubility with solubilizing agents (Example 36); format: physicochemical
Description: The room temperature aqueous solubility (mg/mL) of the a compound (4-{(S)-2-[(S)-2-methoxycarbonylamino)-3-phenylpropanamido]-2-[2-(thiophen-2-yl)thiazol-4-yl]ethyl}phenylsulfamic acid) in water, HPβCD, Poloxamer 407, and sulfobutylether-β-cyclodextrin, is provided in TABLE XXVII. Solubility in saline for the test compound is reduced presumably due to the common ion effect.
The solubility (mg/mL) of the test compound in mixtures of HPβCD and PEG400 is illustrated in TABLE XXVIII.

For COC(=O)N[C@@H](Cc1ccccc1)C(=O)N[C@@H](Cc1ccc(NS(=O)(=O)O)cc1)c1csc(-c2cccs2)n1 [test compound], the “overall exposures versus dose” value [1] was “approximately dose proportional”, the “AUCinf Geometric Mean” value ([1]; 5 mg) was 102.92 ng·h/mL and the “AUCinf Mean” value ([1]; 5 mg) was 106.46 ng·h/mL. The “AUCinf Median” value ([1]; 5 mg) was 100.55 ng·h/mL, the “AUCinf Min-Max” value ([1]; 5 mg) was 70.1 to 155.1 ng·h/mL and the “AUClast Geometric Mean” value ([1]; 5 mg) was 98.63 ng·h/mL. For the same molecule, the “AUClast Mean” value ([1]; 5 mg) was 101.56 ng·h/mL, the “AUClast Median” value ([1]; 5 mg) was 97.03 ng·h/mL and the “AUClast Min-Max” value ([1]; 5 mg) was 67.9 to 142.6 ng·h/mL. The “Cmax Geometric Mean” value ([1]; 5 mg) was 0.07448 µg/mL, the “Cmax Mean” value ([1]; 5 mg) was 0.07775 µg/mL and the “Cmax Median” value ([1]; 5 mg) was 0.07344 µg/mL. The “Cmax Min-Max” value ([1]; 5 mg) was 0.0447 to 0.1081 µg/mL, the “t1/2 Mean (SD)” value ([1]; 5 mg) was 0.85 (0.186) hr and the “t1/2 Median” value ([1]; 5 mg) was 49.8 min. For the same molecule, the “t1/2 Min-Max” value ([1]; 5 mg) was 36 to 66 min, the “tmax Mean (SD)” value ([1]; 5 mg) was 0.31 (0.134) hr and the “tmax Median” value ([1]; 5 mg) was 15.6 min. The “tmax Min-Max” value ([1]; 5 mg) was 18 to 36 min, the “AUCinf Geometric Mean” value ([1]; 15 mg) was 245.89 ng·h/mL and the “AUCinf Mean” value ([1]; 15 mg) was 255.08 ng·h/mL. The “AUCinf Median” value ([1]; 15 mg) was 232.89 ng·h/mL, the “AUCinf Min-Max” value ([1]; 15 mg) was 176.8 to 387.4 ng·h/mL and the “AUClast Geometric Mean” value ([1]; 15 mg) was 230.97 ng·h/mL. For the same molecule, the “AUClast Mean” value ([1]; 15 mg) was 239.08 ng·h/mL, the “AUClast Median” value ([1]; 15 mg) was 213.32 ng·h/mL and the “AUClast Min-Max” value ([1]; 15 mg) was 170.4 to 353.3 ng·h/mL. The “Cmax Geometric Mean” value ([1]; 15 mg) was 0.14986 µg/mL, the “Cmax Mean” value ([1]; 15 mg) was 0.15657 µg/mL and the “Cmax Median” value ([1]; 15 mg) was 0.13805 µg/mL. The “Cmax Min-Max” value ([1]; 15 mg) was 0.1025 to 0.2263 µg/mL, the “t1/2 Mean (SD)” value ([1]; 15 mg) was 0.96 (0.282) hr and the “t1/2 Median” value ([1]; 15 mg) was 53.4 min. The “t1/2 Min-Max” value ([1]; 15 mg) was 36 to 84 min, the “tmax Mean (SD)” value ([1]; 15 mg) was 0.27 (0.039) hr and the “tmax Median” value ([1]; 15 mg) was 15 min. For the same molecule, the “tmax Min-Max” value ([1]; 15 mg) was 12 to 18 min, the “AUCinf Geometric Mean” value ([1]; 22.5 mg) was 454.63 ng·h/mL and the “AUCinf Mean” value ([1]; 22.5 mg) was 498.12 ng·h/mL. The “AUCinf Median” value ([1]; 22.5 mg) was 358.19 ng·h/mL, the “AUCinf Min-Max” value ([1]; 22.5 mg) was 322.4 to 813.8 ng·h/mL and the “AUClast Geometric Mean” value ([1]; 22.5 mg) was 400.80 ng·h/mL. The “AUClast Mean” value ([1]; 22.5 mg) was 437.51 ng·h/mL, the “AUClast Median” value ([1]; 22.5 mg) was 328.84 ng·h/mL and the “AUClast Min-Max” value ([1]; 22.5 mg) was 302.7 to 789.6 ng·h/mL. The “Cmax Geometric Mean” value ([1]; 22.5 mg) was 0.21572 µg/mL, the “Cmax Mean” value ([1]; 22.5 mg) was 0.2374 µg/mL and the “Cmax Median” value ([1]; 22.5 mg) was 0.2032 µg/mL. The “Cmax Min-Max” value ([1]; 22.5 mg) was 0.1427 to 0.4005 µg/mL, the “t1/2 Mean (SD)” value ([1]; 22.5 mg) was 0.84 (0.093) hr and the “t1/2 Median” value ([1]; 22.5 mg) was 52.2 min. The “t1/2 Min-Max” value ([1]; 22.5 mg) was 42 to 54 min, the “tmax Mean (SD)” value ([1]; 22.5 mg) was 0.45 (0.370) hr and the “tmax Median” value ([1]; 22.5 mg) was 16.2 min. The “tmax Min-Max” value ([1]; 22.5 mg) was 18 to 60 min, the “AUCinf Geometric Mean” value ([1]; 30 mg) was 824.87 ng·h/mL and the “AUCinf Mean” value ([1]; 30 mg) was 828.62 ng·h/mL. For the same molecule, the “AUCinf Median” value ([1]; 30 mg) was 834.70 ng·h/mL, the “AUCinf Min-Max” value ([1]; 30 mg) was 729.7 to 921.4 ng·h/mL and the “AUClast Geometric Mean” value ([1]; 30 mg) was 657.33 ng·h/mL. For the same molecule, the “AUClast Mean” value ([1]; 30 mg) was 669.37 ng·h/mL, the “AUClast Median” value ([1]; 30 mg) was 700.90 ng·h/mL and the “AUClast Min-Max” value ([1]; 30 mg) was 444.1 to 796.1 ng·h/mL. For the same molecule, the “Cmax Geometric Mean” value ([1]; 30 mg) was 0.31424 µg/mL, the “Cmax Mean” value ([1]; 30 mg) was 0.32048 µg/mL and the “Cmax Median” value ([1]; 30 mg) was 0.32085 µg/mL. For the same molecule, the “Cmax Min-Max” value ([1]; 30 mg) was 0.2209 to 0.4261 µg/mL, the “t1/2 Mean (SD)” value ([1]; 30 mg) was 1.07 (0.338) hr and the “t1/2 Median” value ([1]; 30 mg) was 55.8 min. The “t1/2 Min-Max” value ([1]; 30 mg) was 48 to 90 min, the “tmax Mean (SD)” value ([1]; 30 mg) was 0.63 (0.391) hr and the “tmax Median” value ([1]; 30 mg) was 38.4 min. For the same molecule, the “tmax Min-Max” value ([1]; 30 mg) was 12 to 60 min, the Tmax ([1]; sc, 30 mg) was 12 to 60 min and the elimination half-life ([1]; sc, 30 mg) was 36 to 90 min. The “Physical and chemical stability of formulation” value ([2]; 4.5% mannitol, 5 mg/mL test compound, one week at room temperature and one week at 50 °C) was “^bPhysically and chemically stable through one week at room temperature and one week at 50 °C”, the “Concentration of test compound in aqueous solution formulation shown to be stable” value ([2]; 4.5% mannitol, one week at room temperature and one week at 50 °C) was 5 mg/mL^b and the “Concentration of test compound in aqueous solution formulation shown to be chemically and physically stable” value ([2]; 10% HPβCD) was 15000 µg/mL. The “Concentration of test compound in aqueous solution formulation evaluated for stability” value ([2]; 15% HPβCD/0.25% saline, evaluated for short-term physical stability at 5 °C and ambient temperature) was 40 mg/mL^a, the “Concentration of test compound in aqueous solution formulation shown to be chemically and physically stable” value ([2]; 25% HPβCD) was 50000 µg/mL and the “Concentration of test compound in aqueous solution formulation shown to be chemically and physically stable” value ([2]; 30% HPβCD) was 50000 µg/mL. For the same molecule, the “solubility with either HPβCD or PEG400 individually” value [3] was “increase in solubility”, the Solubility ([3]; 0% HPβCD, 15% PEG400) was 30 mg/mL (≈ 51.1 mM) and the Solubility ([3]; 0% HPβCD, 30% PEG400) was 68 mg/mL (≈ 116 mM). It also gave a Solubility ([3]; 15% HPβCD, 0% PEG400) of 59 mg/mL (≈ 101 mM), a Solubility ([3]; 15% HPβCD, 5% PEG400) of 57 mg/mL (≈ 97.2 mM) and a Solubility ([3]; 15% HPβCD, 10% PEG400) of 34 mg/mL (≈ 57.9 mM). For the same molecule, the Solubility ([3]; 15% HPβCD, 15% PEG400) was 6 mg/mL (≈ 10.2 mM), the Solubility ([3]; room temperature, aqueous, 0% HPβCD (water)) was 27 mg/mL (≈ 46 mM) and the Solubility ([3]; room temperature, aqueous, 10% HPβCD) was 45 mg/mL (≈ 76.7 mM). For the same molecule, the Solubility ([3]; room temperature, aqueous, 15% SBE-β-CD) was 44 mg/mL (≈ 75 mM), the Solubility ([3]; room temperature, aqueous, 20% HPβCD) was 57 mg/mL (≈ 97.2 mM) and the Solubility ([3]; room temperature, aqueous, 20% Poloxamer 407) was 44 mg/mL (≈ 75 mM). The Solubility ([3]; room temperature, aqueous, 30% HPβCD) was 72 mg/mL (≈ 123 mM) and the “solubility on addition of PEG400 to a mixture with HPβCD” value ([3]; solubility inversely proportional to the amount of PEG400) was “erosion of solubility”.
